From PMC10076671, “Spider venom-derived peptide JZTX-14 prevents migration and invasion of breast cancer cells via inhibition of sodium channels” (Frontiers in Pharmacology, 2023)
Where two headings read alike, the source gives them in different places. Where a SMILES comes first, the peptide text is derived from it. Bridges are numbered along the chain shown (N, C = ends).

Columns and labels:
Nav1.5 [1] = format: cell-based; details: 50 ms depolarisation to −30 mV, holding potential −100 mV, room temperature (22°C–25°C), mean ± SEM
Experimental: Sodium currents in experimental cells were recorded at room temperature (22°C–25°C) using an EPC-10 patch-clamp amplifier (HEKA, Germany) in a whole-cell patch-clamp configuration. Recording pipettes were made from borosilicate glass capillaries (VWR, United States) using a PC-10 puller (Narishige, Japan). The inner solution (mM): KCl 130, NaCl 15, CaCl2 0.37, MgCl2 1 EGTA 1, HEPES 10, pH 7.2, resistance was measured as 1.8 MO. The outer solution was composed of (mM): NaCl 140, KCl 3, MgCl2 1, CaCl2 1, HEPES 10, pH 7.2. To minimize voltage errors, the series resistance compensation was set to 80%. The P/4 protocol was used to subtract the linear capacitance and leakage current. Experimental data were acquired and analyzed using the pulse fit 8.0 program (HEKA, Germany). The needed concentrations of toxin dissolved in external solution were applied to the cell surface by microinjector.
To determine the biological activity of synthetic and natural JZTX-14 on Nav1.5, we observed their effects on HEK293T cells heterologously expressing Nav1.5 using a whole-cell voltage-clamp configuration. The current traces were induced by a 50 ms depolarisation potential of −30 mV at a holding potential of −100 mV. Currents were recorded by adding 0.1 μM and 0.5 μM of JZTX-14 to the solution.

MDA-MB-231 cells = assay: Western blot analysis of EMT markers; format: cell-based, human; details: compared to controls
Experimental: Cells treated with different concentrations of JZTX-14 were lysed with RIPA lysis solution and samples were collected. Protein concentrations were determined by BCA assay kit (Biosharp, China) and denatured by adding SDS loading buffer (Bio-Bad, United States) followed by boiling. Equal amounts of total protein lysates were subjected to SDS-PAGE and transferred to PVDF membrane (Merck Millipore, United States), 5% BSA was used for blocking (1 h). Primary antibody (Nav1.5, E-cadherin, GAPDH and Vimentin antibody for Proteintech; N-cadherin for Immunoway) was incubated overnight at 4°C, secondary antibody (Abbkine, China) was incubated for 1 h at room temperature and the membrane was visualized by chemiluminescence.

Nav1.5 [2] = details: HEK293 cells heterologously expressing Nav1.5; ref Zhang et al., 2018; cited from earlier work

## CC[C@H](C)[C@H](NC(=O)[C@@H]1CSSC[C@@H]2NC(=O)[C@@H]3CCCN3C(=O)[C@@H]3CCCN3C(=O)[C@H](CCC(N)=O)NC(=O)CNC(=O)[C@@H]3CCCN3C(=O)[C@H](Cc3c[nH]cn3)NC(=O)[C@@H]3CSSC[C@H](NC(=O)[C@H](C)NC(=O)[C@H](CC(C)C)NC(=O)CNC(=O)[C@H](CO)NC(=O)[C@H](CSSC[C@H](NC(=O)CN)C(=O)N[C@@H](CCC(N)=O)C(=O)N[C@@H](CCCCN)C(=O)N[C@@H](Cc4ccccc4)C(=O)N[C@@H](Cc4ccccc4)C(=O)N[C@@H](Cc4c[nH]c5ccccc45)C(=O)N[C@@H]([C@@H](C)O)C(=O)N3)NC2=O)C(=O)N[C@@H]([C@@H](C)O)C(=O)N[C@@H](Cc2c[nH]c3ccccc23)C(=O)N2CCC[C@H]2C(=O)N[C@@H]([C@@H](C)O)C(=O)N[C@@H](CCC(=O)O)C(=O)N[C@@H]([C@@H](C)CC)C(=O)N1)C(=O)N[C@@H](CC(C)C)C(N)=O [JZTX-14] (H-GCQKFFWTCHPGQPPCCSGLACTWPTEICIL-NH2; disulfide 2-17, 9-22, 16-29)
Nav1.5 [1]; 0.1 μM, listed as Synthetic JZTX-14, 0.1 µM
  Inhibition of Nav1.5 current: 30.3% ± 2.5%
Nav1.5 [1]; 0.5 μM, listed as Synthetic JZTX-14, 0.5 µM
  Inhibition of Nav1.5 current: 53.4% ± 2.5%
MDA-MB-231 cells; epithelial marker
  E-cadherin expression level (western blot): significantly increased
MDA-MB-231 cells; matrix metalloproteinase
  MMP2 expression level (western blot): decreased
MDA-MB-231 cells; mesenchymal marker
  N-cadherin expression level (western blot): decreased
  Vimentin expression level (western blot): decreased
Nav1.5 [2]
  Inhibition of Nav1.5 function: effectively inhibits
